Test results published in publication PMC5056396, “Hexokinase I N-terminal based peptide prevents the VDAC1-SOD1 G93A interaction and re-establishes ALS cell viability” (Scientific Reports, 2016).

Assays:
[1] = system: SOD1 G93A binding to intact mitochondria purified from NSC34 cells; experiment: Mitochondrial binding assay of SOD1 G93A after pre-incubation with peptide; set-up: species or system mouse; details: scramble control
Description: The ability of NHK1 to inhibit SOD1 G93A from binding the mitochondrial surface was investigated using intact mitochondria purified from NSC34 cells. Mitochondria were incubated with SOD1 G93A, in the presence or absence of 60 μM NHK1 peptide. […] Following incubation with NHK1, a dramatic decrease of 85% SOD1 G93A bound to mitochondria was seen (Fig. 5D). Again, no effect was found by incubating mitochondria with the ScNHK1 peptide.
Intact mitochondria were purified from NSC34 cells by Mitochondrial isolation kit (Miltenyi Biotech), according with manufacturer’s instructions. Isolated, intact mitochondria, in the storage buffer provided, were quantified by Lowry method. Mitochondria were incubated with 2 μg of purified SOD1 WT or G93A for 1 h at RT, under constant shaking in storage buffer. Alternatively, a pre-incubation with 60 μM NHK1 peptide for 1 h, in the same condition, was performed. Mitochondrial pellet was collected by centrifugation for 2 min at 13000×g. Supernatants were collected, and mitochondrial pellets were lysed using 3% Triton X-100. Proteins in mitochondrial or supernatant fraction were detected by western blot and quantified as explained in Supplementary Information. At least, three independent experiments were performed.

NSC34-SOD1G93A cells = experiment: Cell viability assay (MTT); format: cell-based, mouse; details: expression from transfected plasmid
From the text: (§1) In order to analyze the effect of NHK1 peptide in our ALS-like in cellulo system, the subcellular distribution of NHK1 peptide was investigated. NSC34 cells were transiently transfected with a plasmid encoding for a HA-tagged NHK1 peptide and for a mitochondrial-targeted Red Fluorescent Protein (mtDsRED)[18]. […] Then, the NHK1 peptide, as well as the whole HK1 as control, was expressed in NSC34-SOD1G93A or SOD1WT to evaluate its ability to counteract the toxicity mediated by mutSOD1. Literature reports indicate that SOD1 mutants expression in NSC34 cell promote a significative loss of cell viability, accordingly with the specific mutation. […] Therefore, supplementation of NHK1 peptide (or HK1) to NSC34-SOD1G93A cells promotes a recovery of the cell viability.
24 h-induced NSC34-SOD1WT and NSC34-SOD1G93A cells seeded on 24-well plates were transfected using 0,25 μg of pEGFP-N1-HK1 or empty pEGFP-N1 or 0,5 μg of pMCS-mtDsRED-NHK1 or scramble or empty pCMS-mtDsRED. Cell viability was analyzed using 3-(4,5-dimethylthiazol-2-yl)-2,5-diphenyltetrazolium bromide (MTT)[47] (Sigma). A colorimetric assay was performed using the microplate reader Varioskan (Thermo Scientific). Reported data are representative for three sets of independent experiments, each performed in triplicate. Data were statistically analyzed using one-way ANOVA followed by Bonferroni post hoc test. […]

NSC34 cells = experiment: Subcellular distribution by indirect immunofluorescence; format: cell-based, mouse; details: HA-tagged NHK1 expressed from plasmid with mtDsRED, transient transfection
From the text: as §1
Plasmids and cell transfection […]
NSC34 cells not transfected or transfected with 0,5 µg of pCMS-mtDsRED-NHK1-HA were fixed in 3.7% formaldehyde and permeabilized using 0.3% Triton X-100. […] Endogenous HK1 was detected in not transfected cells by incubating over-night cells with rabbit anti-HK1 antibody (1:100) (Abcam). NHK1-HA was detected in transfected cells by incubating over-night cells with rabbit anti-HA antibody (1:100) (Santa Cruz Biotechnology, Inc.). […]
examined by fluorescence microscopy. […]

“FAQLTIALAYY [ScNHK1, scramble peptide (…) synthetized and used as control, reference compound]” was tested, and the “effect on SOD1 G93A bound to mitochondria” value [1] was “no effect” and the “effect on cell viability of NSC34-SOD1G93A” value (NSC34-SOD1G93A cells) was “does not change the cell viability”.

For “IAAQLLAYYFT [NHK1, peptide corresponding to residues 2–12 (N-terminal region) of human HK1 protein (…)]”, the “subcellular localization” value (NSC34 cells) was “mainly co-localized with mtDsRED signal”.
